Consider one compound from patent publication US20150313862A1, “"Pharmaceutical composition for reducing the trimethylamine N-oxide level"” (Latvian Institute of Organic Synthesis, priority 2012, published 2015).

Marks after values point to notes of the source that are not given here.

The conditions of data set [1]: cited from earlier work.
Data set [2] concerns TMANO. As to the kind of experiment: TMANO concentration in blood plasma of healthy volunteers on a TMANO source rich diet (UPLC-MS/MS). It counts as in vivo, human. As to conditions: for TMANO concentration in study participant's blood plasma: healthy volunteers (n=8), after 7 days TMANO source rich diet (150 g fish/day) with oral Meldonium 500 mg twice a day, mean ± SEM, diet alone 81.5 ± 8.6, baseline 4.9 ± 1.3, dihydrate. The protocol: (§1) Eight healthy volunteers were involved in the study, 4 women and 4 men. The study was conducted in accordance with the Declaration of Helsinki, and with bioethical norms approved by the Central Committee of Medical Ethics. All study participants have signed informed consent forms. Exclusion criteria for participation in the study were: the use of dietary supplements, smoking, pregnancy and alcohol addiction. At the study beginning information about the participant's age, medication use, height and weight was recorded.
Then, a venous blood sample and evening and morning urine samples were collected from the study participants. At the first stage of experiment, all participants received 150 grams of fish for lunch, once a day, during 7 days, which served as a source of TMANO increased formation in the body (W. J. Dyer. Amines in Fish Muscle. VI. Trimethylamine Oxide Content of Fish and Marine Invertebrates, Journal of the Fisheries Research Board of Canada, 8c(5): 314-324, 10.1139/f50-020, 1952).
During the next stage of experiment, to determine the effect of Meldonium on TMANO concentration in blood plasma and urine, in addition to trimethylamine-rich food source, a pharmaceutical composition containing 500 mg of Meldonium was administered to each study participant during 7 days, twice a day (morning and evening). […]
(§2) TMANO concentration in plasma and urine samples was determined by ultrahigh performance liquid chromatography-tandem mass spectrometry method. […] TMANO detection and quantification was performed using Quattro Micro™ spectrometer (Micromass) in an ion reaction monitoring (TMANO ion transition m/z75.8>m/z58.3, IS ion transition m/z175.4>m/z86.0) positive electrospraying mode (cone voltage 26V, collision energy 14 eV, collision gas—argon). […]
TMANO concentration in the sample was calculated using the linear relationship TMANO peak area/IS peak area—TMANO concentration using the data processing software QuanLynx V4.1 (Waters). […]

Data set [3] has as its system TMANO. As to the kind of experiment: Total amount of TMANO excreted with urine during 7 days, healthy volunteers on a TMANO source rich diet (UPLC-MS/MS, creatinine by Jaffe method). It counts as in vivo, human. The note with it: for Total excreted with urine TMANO amount during 7 days: healthy volunteers (n=8), 7 days TMANO source rich diet with oral Meldonium 1 g/day, area under the curve, mean ± SEM, diet alone 18.2 ± 2.2, baseline 2.8 ± 0.6, dihydrate. The protocol: as §1
Then, a venous blood sample and evening and morning urine samples were collected from the study participants. At the first stage of experiment, all participants received 150 grams of fish for lunch, once a day, during 7 days, which served as a source of TMANO increased formation in the body (W. J. Dyer. Amines in Fish Muscle. VI. Trimethylamine Oxide Content of Fish and Marine Invertebrates, Journal of the Fisheries Research Board of Canada, 8c(5): 314-324, 10.1139/f50-020, 1952). […]
as §2
TMANO concentration in the sample was calculated using the linear relationship TMANO peak area/IS peak area—TMANO concentration using the data processing software QuanLynx V4.1 (Waters).
Creatinine concentration was calculated by slightly modified Jaffe method (Jaffe M. Ueber die Niederschlag, welchen Pikrinsaure in normalem Ham erzeugt and uber eine neue Reaction des Kreatinins. Z physiol Chem 1886; 10: 391-400). […] After 10 min of incubation at room temperature the absorbance was measured at 492 nm with a μQuant™ multiwell plate […] spectrophotometer (Biotek Instruments, USA). […]

Regarding `C[N+](C)(C)NCCC(=O)[O-]` [Meldonium, 3-(2,2,2-trimethyhydrazinium)propionate dihydrate], in data set [1], the Solubility in water result is recorded as “easily soluble in water”. The “Reduction of TMANO plasma concentration” value with TMANO [2] (7 days oral Meldonium 500 mg twice a day with TMANO-rich food, compared with TMANO level before Meldonium use, statistically significant) was 47%. In addition, the “TMANO concentration in study participant's blood plasma” value is 43.0 ± 3.8 nmol/mL in the data set on TMANO [2] and 43.0 ± 3.8*^,# nmol/ml in the data set on TMANO [2] (listed as TMANO + Meldonium). Further, the “Increase of urine excreted TMANO amount” value with TMANO [3] (7 days oral Meldonium 500 mg twice a day with TMANO-rich food, versus before Meldonium use, statistically significant) is “about 25%”. Moreover, the entries for the “Total excreted with urine TMANO amount during 7 days” value with TMANO [3] and in the data set with TMANO [3] (listed as TMANO + Meldonium) were 24.3±1.5 μmol/mg creatinine *7 d and 24.3 ± 1.5*^,# μmol/mg creatinine *7 d, respectively.
